Measurements taken from ChEMBL document CHEMBL3091343, “Nicotinamide phosphoribosyltransferase inhibitors, design, preparation, and structure-activity relationship” (J Med Chem, 2013).

What was measured:
[1] = test system: A2780; assay: Cytotoxicity against human A2780 cells assessed as growth inhibition after 72 hrs by WST-1 assay; format: functional, cell-based; conditions: A2780, 72 h
[2] = test system: MCF7; assay: Cytotoxicity against human MCF-7 cells assessed as growth inhibition after 72 hrs by WST-1 assay; format: functional, cell-based; conditions: MCF7, 72 h
[3] = target: Nicotinamide phosphoribosyltransferase (Homo sapiens, UniProt P43490); assay: Inhibition of NAMPT in human HepG2 cells using [14C]-nicotinamide/PRPP as substrate assessed as formation of [14C]-nicotinamide mononucleotide after 1 hr by liquid scintillation counting analysis; format: cell-based
Sequence of Nicotinamide phosphoribosyltransferase (P43490 whole entry): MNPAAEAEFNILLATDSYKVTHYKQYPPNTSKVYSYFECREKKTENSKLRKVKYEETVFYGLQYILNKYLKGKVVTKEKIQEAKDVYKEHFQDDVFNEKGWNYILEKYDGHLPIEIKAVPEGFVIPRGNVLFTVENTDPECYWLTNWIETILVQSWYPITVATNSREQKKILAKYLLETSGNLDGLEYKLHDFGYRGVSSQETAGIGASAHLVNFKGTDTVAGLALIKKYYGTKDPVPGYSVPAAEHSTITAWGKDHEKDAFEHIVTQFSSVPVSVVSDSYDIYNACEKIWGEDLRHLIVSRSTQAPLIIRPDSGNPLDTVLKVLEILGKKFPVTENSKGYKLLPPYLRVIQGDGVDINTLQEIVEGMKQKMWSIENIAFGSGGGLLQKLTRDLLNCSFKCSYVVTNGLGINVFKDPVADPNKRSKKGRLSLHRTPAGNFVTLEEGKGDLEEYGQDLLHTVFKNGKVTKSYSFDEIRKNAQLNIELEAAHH

| IC50 [3] [nM] | Structure (SMILES) | IC50 [1] [nM] | IC50 [2] [nM] |
| --- | --- | --- | --- |
| 49.6 | O=C1C(=O)C(Nc2ccncc2)C1NCCCCCS(=O)(=O)N(OCCN1CCOCC1)C1CCCCC1 (centres undefined) | 0.57 | 35.8 |
|  | O=C1C(=O)C(Nc2ccncc2)C1NCCCCCC(=O)N(Cc1ccccc1)OCCN1CCOCC1 (centres undefined) | 0.68 | 23 |
|  | N#C/N=C(\NCCCCCCS(=O)(=O)N(CCCN1CCOCC1)C1CCC1)Nc1ccncc1 | 0.091 | 0.1 |
| 3.6 | O=C1C(=O)C(Nc2ccncc2)C1NCCCCCCCS(=O)(=O)N(OCCN1CCOCC1)C1CCCCC1 (centres undefined) | 0.49 | 8 |
| 1.1 | N#CNC(=Nc1ccncc1)NCCCCCCC(=O)NOC1CCCCC1 | 35 | 940 |
|  | C[C@H](CCCCCN/C(=N\C#N)Nc1ccncc1)C(=O)NOC1CCCCC1 | 3.9 | 38.3 |
|  | N#C/N=C(\NCCCCCCC(=O)N(OCCN1CCOCC1)C1CCCCC1)Nc1ccccc1 | 98 | 1020 |
|  | O=S(=O)(CCCCCCNC(=S)Nc1ccncc1)N(OCCN1CCOCC1)C1CCCC1 | 0.16 | 0.31 |
|  | O=C(NCCCCCCCS(=O)(=O)N(OCCN1CCOCC1)C1CCCCC1)NCc1cccnc1 | 0.31 | 3.6 |
|  | O=C(NCCCCCCS(=O)(=O)N(CCCN1CCOCC1)C1CCC1)NCc1cccnc1 | 1.7 | 8.7 |
|  | N#C/N=C(\NCCCCCS(=O)(=O)N(OCCN1CCOCC1)C1CCCCC1)Nc1ccncc1 | 0.011 | 0.036 |
|  | O=C1C(=O)C(Nc2ccncc2)C1NCCCCCCS(=O)(=O)N(OCCN1CCOCC1)C1CCCC1 (centres undefined) | 0.59 | 13.7 |
|  | O=C(NCCCCCCS(=O)(=O)N(OCCN1CCOCC1)C1CCC1)NCc1cccnc1 | 2.2 | 11 |
|  | C[C@@H](CCCCCN/C(=N\C#N)Nc1ccncc1)C(=O)NOC1CCCCC1 | 0.08 | 1 |
| 38.5 | N#C/N=C(\NCCCCCCC(=O)N(Cc1ccccc1)OC1CCCCC1)Nc1ccncc1 | 0.055 | 1 |
| 2.4 | N#C/N=C(\NCCCCCCS(=O)(=O)N(CCCN1CCOCC1)C1CCCCC1)Nc1ccncc1 | 0.16 | 0.11 |
|  | N#C/N=C(\NCCCCCC(=O)N(Cc1ccccc1)OCCN1CCOCC1)Nc1ccncc1 | 0.081 | 0.021 |
|  | O=C(NCCCCCS(=O)(=O)N(OCCN1CCOCC1)C1CCC1)NCc1cccnc1 | 13 | 49 |
|  | O=C1C(=O)C(Nc2ccncc2)C1NCCCCCCS(=O)(=O)N(CCN1CCOCC1)OCC1CCCCC1 (centres undefined) | 0.73 | 10.8 |
|  | O=C(NCCCCCCC(=O)N(OCCN1CCOCC1)C1CCCCC1)NCc1cccnc1 | 0.27 | 0.37 |
|  | N#C/N=C(\NCCCCCCS(=O)(=O)N(OCCN1CCOCC1)C1CCCCC1)Nc1cccnc1 | 0.51 | 2.9 |
| 11.8 | O=C(NCCCCCCS(=O)(=O)N(CCN1CCOCC1)CC1CCCCC1)NCc1cccnc1 | 0.17 | 0.93 |
|  | N#CN=C(NCCCCCCOc1ccc(Cl)cc1)Nc1ccncc1 [CHS-828] | 0.56 | 1.6 |
|  | O=C(NCCCCCCCS(=O)(=O)N(OCCN1CCOCC1)C1CCCCC1)Nc1ccncc1 | 1.8 | 7.4 |
